Assay results reported in patent US20220265629A1, “TREATMENT OF SYSTOLIC DYSFUNCTION AND HEART FAILURE WITH REDUCED EJECTION FRACTION WITH THE COMPOUND (R)-4-(1-((3-(DIFLUOROMETHYL)-1-METHYL-1H-PYRAZOL-4-YL)SULFONYL)-1-FLUOROETHYL)-N-(ISOXAZOL-3-YL)PIPERIDINE-1-CARBOXAMIDE” (MyoKardia, Inc., priority 2019, published 2022).
Read-outs that look alike come from different tables or passages of the source.

How the values were obtained:
[1] = test system: patients with stable HFrEF; assay: HFrEF study Part 1 (SAD Cohorts 1 and 2): TTE pharmacodynamics by plasma concentration group; type: in vivo, human; conditions: for A wave peak change from baseline, placebo-corrected (LS mean difference) / E wave peak change from baseline, placebo-corrected (LS mean difference) / E/A ratio change from baseline, placebo-corrected (LS mean difference) / E/e′ lateral change from baseline, placebo-corrected (LS mean difference) / LVEDD change from baseline, placebo-corrected (LS mean difference) / LVEDV change from baseline, placebo-corrected (LS mean difference) / LVEF change from baseline, placebo-corrected (LS mean difference) / LVESD change from baseline, placebo-corrected (LS mean difference) / LVESV change from baseline, placebo-corrected (LS mean difference) / LVFS change from baseline, placebo-corrected (LS mean difference) / LVGLS change from baseline, placebo-corrected (LS mean difference) / LVSV change from baseline, placebo-corrected (LS mean difference) / SET change from baseline, placebo-corrected (LS mean difference) / e′ lateral change from baseline, placebo-corrected (LS mean difference): pooled SAD Cohorts 1 and 2
Description: PD assessment was done by transthoracic echocardiography as described in Example 1 above. TTE evaluations of LVSV (derived from LVOT-VTI), LVEF, LVFS, SET, and other parameters were PD assessments at predetermined time points. The patients were on bed rest for 10 minutes before the TTEs were obtained. In Part 2 (MAD), TTEs were usually obtained before the morning close and/or at 7 hours postclose (i.e., close to the anticipated peak effect based on the PK profile from the healthy volunteer studies).
For both Cohorts 1 and 2, the pharmacodynamic effects of Compound I on echocardiographic markers of cardiac structure and function were analyzed by Compound I plasma concentration groups: <2000 ng/mL (low concentration group) and >2000 ng/mL (high concentration group) (Table 12).

[2] = Unbound (free) fraction in plasma; type: in vitro ADME
[3] = Pharmacokinetics in beagle dogs (single doses); type: in vivo
Description: The pharmacokinetics of Compound I have been evaluated in multiple dog studies. […] At a single dose<3 mg/kg, the observed oral bioavailability was approximately 100%. This nonlinear pharmacokinetics of Compound I was also observed in humans. […] In order to delineate the underlying mechanism responsible for the nonlinear pharmacokinetics, physiologically-based absorption models of Compound I for beagle dogs and healthy volunteers were developed and used to assess the effect of particle size on the in vivo dissolution, absorption, bioavailability, and systemic exposure of Compound I.
Data used for Compound I physiologically-based pharmacokinetic (PBPK) model development and verification were obtained from in vivo nonclinical studies in dogs (FIG. 13), a clinical study in healthy volunteers (Example 1), and in vitro experiments (Table 20).

[4] = high plasma concentration group (≥2000 ng/mL)

In the case of `Cn1cc(S(=O)(=O)[C@@](C)(F)C2CCN(C(=O)Nc3ccon3)CC2)c(C(F)F)n1` [Compound I, (R)-4-(1-((3-(difluoromethyl)-1-methyl-1H-pyrazol-4-yl)sulfonyl)-1-fluoroethyl)-N-(isoxazol-3-yl)piperidine-1-carboxamide], the “SET prolongation in one patient” value ([1]; 350 mg, 1.5 and 3 h postdose) was roughly 63 ms, the “Mean SET prolongation for all patients” value ([1]; 350 mg, 3 to 9 hours postdose) was 16.2 ms and the “SET prolongation in one patient” value ([1]; 350 mg, 6 and 9 hours postdose) was less than 35 ms. For the same compound, the “increase in SET” value ([1]; SAD cohorts) was less than 50 ms, the “relative increases from baseline in cardiac contractility (SV, LVEF, FS)” value ([1]; SAD cohorts) was “approximately 10%” and the “LV ejection fraction, mean (SE) increase from baseline” value [1, 4] was 4.4%. For the same compound, the “LV global longitudinal strain, mean (SE) decrease” value [1, 4] was −2.1%, the “A wave peak change from baseline, placebo-corrected (LS mean difference)” value ([1]; plasma <2000 ng/mL) was -3.2 cm/s and the “E wave peak change from baseline, placebo-corrected (LS mean difference)” value ([1]; plasma <2000 ng/mL) was -1.1 cm/s. The “E/A ratio change from baseline, placebo-corrected (LS mean difference)” value ([1]; plasma <2000 ng/mL) was 0.09, the “E/e′ lateral change from baseline, placebo-corrected (LS mean difference)” value ([1]; plasma <2000 ng/mL) was 0.6 and the “LVEDD change from baseline, placebo-corrected (LS mean difference)” value ([1]; plasma <2000 ng/mL) was 0.2 mm. The “LVEDV change from baseline, placebo-corrected (LS mean difference)” value ([1]; plasma <2000 ng/mL) was -2.5 mL, the “LVEF change from baseline, placebo-corrected (LS mean difference)” value ([1]; plasma <2000 ng/mL) was 4.1% and the “LVESD change from baseline, placebo-corrected (LS mean difference)” value ([1]; plasma <2000 ng/mL) was −1.3 mm. The “LVESV change from baseline, placebo-corrected (LS mean difference)” value ([1]; plasma <2000 ng/mL) was -4.0 mL, the “LVFS change from baseline, placebo-corrected (LS mean difference)” value ([1]; plasma <2000 ng/mL) was 3.1% and the “LVGLS change from baseline, placebo-corrected (LS mean difference)” value ([1]; plasma <2000 ng/mL) was −1.1%. For the same compound, the “LVSV change from baseline, placebo-corrected (LS mean difference)” value ([1]; plasma <2000 ng/mL) was 1.0 mL, the “SET change from baseline, placebo-corrected (LS mean difference)” value ([1]; plasma <2000 ng/mL) was 8 ms and the e′ lateral change from baseline, placebo-corrected (LS mean difference) ([1]; plasma <2000 ng/mL) was -1 cm/s. The “A wave peak change from baseline, placebo-corrected (LS mean difference)” value ([1]; plasma ≥2000 ng/mL) was -8.8 cm/s, the “E wave peak change from baseline, placebo-corrected (LS mean difference)” value ([1]; plasma ≥2000 ng/mL) was -1.6 cm/s and the “E/A ratio change from baseline, placebo-corrected (LS mean difference)” value ([1]; plasma ≥2000 ng/mL) was 0.08. For the same compound, the “E/e′ lateral change from baseline, placebo-corrected (LS mean difference)” value ([1]; plasma ≥2000 ng/mL) was 0.2, the “LVEDD change from baseline, placebo-corrected (LS mean difference)” value ([1]; plasma ≥2000 ng/mL) was −0.3 mm and the “LVEDV change from baseline, placebo-corrected (LS mean difference)” value ([1]; plasma ≥2000 ng/mL) was -1.9 mL. The “LVEF change from baseline, placebo-corrected (LS mean difference)” value ([1]; plasma ≥2000 ng/mL) was 4.4%, the “LVESD change from baseline, placebo-corrected (LS mean difference)” value ([1]; plasma ≥2000 ng/mL) was −1.8 mm and the “LVESV change from baseline, placebo-corrected (LS mean difference)” value ([1]; plasma ≥2000 ng/mL) was -3.5 mL. The “LVFS change from baseline, placebo-corrected (LS mean difference)” value ([1]; plasma ≥2000 ng/mL) was 2.8%, the “LVGLS change from baseline, placebo-corrected (LS mean difference)” value ([1]; plasma ≥2000 ng/mL) was −2.1% and the “LVSV change from baseline, placebo-corrected (LS mean difference)” value ([1]; plasma ≥2000 ng/mL) was 9.0 mL. For the same compound, the “SET change from baseline, placebo-corrected (LS mean difference)” value ([1]; plasma ≥2000 ng/mL) was 36 ms, the e′ lateral change from baseline, placebo-corrected (LS mean difference) ([1]; plasma ≥2000 ng/mL) was -1 cm/s and the fraction unbound ([2]; dog, Dog plasma, read-out: fup (Dog), unbound fraction in plasma) was 0.416. For the same compound, the fraction unbound ([2]; human, Human plasma, 0.1 to 10 μM, read-out: fup (Human), unbound fraction in plasma) was 0.144 to 0.164, the fraction unbound ([2]; human, read-out: fu, free fraction of Compound I in plasma) was 0.14 to 0.18 and the bioavailability ([3]; beagle, dog, plasma, po, single dose <3 mg/kg, read-out: oral bioavailability) was roughly 100%. The bioavailability ([3]; beagle, dog, plasma, oral 10 mg/kg, micronized (Dv50=3.2 μm), read-out: bioavailability) was greater than 100%, the bioavailability ([3]; beagle, dog, plasma, oral 100 mg, Dv50=46 μm, read-out: bioavailability) was roughly 40% and the Vd ([3]; beagle, plasma, 1-compartmental model analysis of in vivo data in dog) was 1.51 L/kg. The clearance ([3]; beagle, plasma, 1-compartmental model analysis of in vivo data in dog, read-out: CL (Dog) (converted)) was 1.58 mL/min/kg and the bioavailability ([3]; single oral dose 25 mg (3 mg/kg) or lower, regardless of particle size) was “approximately 100%”.
